Assays:
[1] = biological target: T1, NMDA receptor glycine site (Rattus norvegicus, UniProt P35439); assay: Test A: Inhibition of binding of [3H]-MDL105,519 to brain membranes; details: displacement of 1.2 nM [3H]MDL105,519, brain membranes
T1 construct: The rat brain membranes used in the experiments were obtained from Analytical Biological Services Inc; tissue Analytical Biological Services Inc; host or cells: rat brain membranes (cerebral cortex and hippocampus, male Sprague Dawley rats)
Source text: Test A: Inhibition of Binding of [^3H]-MDL105,519:
Binding of compounds to the NMDA receptor glycine site may be assessed by measuring the ability of test compounds to inhibit the binding of tritiated MDL105,519 to brain membranes bearing the receptor.
Briefly, fresh brain tissue including cerebral cortex and hippocampus from male Sprague Dawley rats was homogenized in 0.32 M sucrose and centrifuged at low speed to separate cellular membranes from other cellular components. The membranes were then washed 3 times using deionized water, followed by treatment with 0.04% Triton X-100. Finally, membranes were washed six times in 50 mM Tris citrate buffer, pH 7.4, and frozen at −80° C. until use.
[^3H]MDL105,519 (72 Ci/mmol) was purchased from Amersham. Cold MDL105,519 was purchased from Sigma/RBI. Binding assays were performed substantially in accordance with the protocol of B. M. Baron et al., J. Phannacol. […] On the day of the experiment, brain membranes were thawed at room temperature and suspended in 50 mM tris acetate buffer, pH 7.4 (“TAB”). Seventy-five micro grams per milliliter protein (by using the BioRad dye) were used for competition binding. The experiments were carried out using 96-well plates. […] Non specific binding was determined by using 100 μM of unlabeled MDL105,519. […] After incubation, unbound [^3H]MDL105,519 was removed by filtration onto GF/B Unifilter plates using a Packard harvester. Filters were washed four times with ice cold TAB (total of 1.2 mL buffer). The plates were dried overnight at room temperature and bound radioactivity was measured on a Packard TopCount after the addition of 45 μL per well of the MICROSCINT O.
Human Brain Membranes: Human brain membranes were obtained from Analytical Biological Services Inc., and assays were performed as described for rat membranes.
Data analysis: Data was analyzed using a Microsoft Excel spreadsheet and GraphPad Prizm software and potency of compounds is expressed as the Ki (nM).

[2] = test system: CCI rats (thermal hyperalgesia); assay: Test C: Neuropathic pain model (Chronic Constriction Injury), thermal hyperalgesia paw-withdrawal test; assay type: in vivo, rat; details: oral
Source text: Test C: Neuropathic Pain Model (Chronic Constriction Injury): […]

SMILES | Ki [1] [nM] | Test C % Inh. (percent decrease of hyperalgesia) at MED ([2]; at the MED, compared to vehicle-treated animals) [%] | Test C MED (minimum effective dose) ([2]; three times daily for 5 days, dose giving statistically significant decrease in hyperalgesia) [mg/kg/day]
Cc1c(Cn2nc(O)c3[nH]c4cc(Cl)ccc4c(=O)c3c2=O)sc2ccccc12 | 161 |  | 
Cc1ccsc1Cn1nc(O)c2[nH]c3cc(Cl)ccc3c(=O)c2c1=O [Ex. 2, 7-Chloro-4-hydroxy-2-[2-(3-methyl)thienylmethyl]-1,2,5,10-tetrahydropyridazino[4,5-b]quinoline-1,10-dione] |  | −15 | 30
Cc1[nH]cnc1Cn1nc(O)c2nc3cc(Cl)ccc3c(O)c2c1=O | 434 |  | 
Cc1occc1Cn1nc(O)c2[nH]c3cc(Cl)ccc3c(=O)c2c1=O [Ex. 4, 7-Chloro-4-hydroxy-2-[(2-methyl(furan-3-yl))methyl]-1,2,5,10-tetrahydropyridazinol[4,5-b]quinonline-1,10-dione] | 28 |  | 
O=c1c2ccc(Cl)cc2[nH]c2c(O)nn(Cc3ccc(-c4ccccc4Cl)o3)c(=O)c12 [Ex. 6, 7-Chloro-4-hydroxy-2-{[5-(2-chlorophenyl)(2-furyl)]methyl}-1,2,5,10-tetrahydropyridazino[4,5-b]quinoline-1,2-dione] | 298 |  | 
Cc1cc(Cn2nc(O)c3[nH]c4cc(Cl)ccc4c(=O)c3c2=O)c(C)o1 [Ex. 1, 7-Chloro-4-hydroxy-2-[3-(2,5-dimethyl)furanylmethyl]-1,2,5,10-tetrahydropyridazino[4,5-b]quinoline-1,10-dione] | 24.8 |  | 
Cc1ccc(Cn2nc(O)c3[nH]c4cc(Cl)ccc4c(=O)c3c2=O)s1 [Ex. 9, 7-Chloro-4-hydroxy-2-(5-methylthien-2-ylmethyl)-1,2,5,10-tetrahydropyridazino[4,5-b]quinoline-1,10-dione] | 28 |  | 
COC(=O)c1ccc(Cn2nc(O)c3[nH]c4cc(Cl)ccc4c(=O)c3c2=O)o1 [Ex. 8, 7-Chloro-4-hydroxy-2-(5-methoxycarbonyl(furan-2-yl)methyl)-1,2,5,10-tetrahydropyirdazino[4,5-b]quinolin-1,10-dione] | 72 |  | 
